# Reference: patent US12428370B2, “Haloallylamine dual amine oxidase inhibitors” (Syntara Limited, priority 2020, dated 2025)
# Counter-ions that a name gives are not always drawn.
# What was measured:
# Recombinant human MAO-B = target: T1, Recombinant human MAO-B (Homo sapiens, UniProt P27338); test: Inhibition of human recombinant MAO-B; assay type: biochemical; conditions: incubation time of 2 hours, benzylamine 100 μM
# T1 construct: purchased Sigma Aldrich
# T1 sequence (P27338 1-520): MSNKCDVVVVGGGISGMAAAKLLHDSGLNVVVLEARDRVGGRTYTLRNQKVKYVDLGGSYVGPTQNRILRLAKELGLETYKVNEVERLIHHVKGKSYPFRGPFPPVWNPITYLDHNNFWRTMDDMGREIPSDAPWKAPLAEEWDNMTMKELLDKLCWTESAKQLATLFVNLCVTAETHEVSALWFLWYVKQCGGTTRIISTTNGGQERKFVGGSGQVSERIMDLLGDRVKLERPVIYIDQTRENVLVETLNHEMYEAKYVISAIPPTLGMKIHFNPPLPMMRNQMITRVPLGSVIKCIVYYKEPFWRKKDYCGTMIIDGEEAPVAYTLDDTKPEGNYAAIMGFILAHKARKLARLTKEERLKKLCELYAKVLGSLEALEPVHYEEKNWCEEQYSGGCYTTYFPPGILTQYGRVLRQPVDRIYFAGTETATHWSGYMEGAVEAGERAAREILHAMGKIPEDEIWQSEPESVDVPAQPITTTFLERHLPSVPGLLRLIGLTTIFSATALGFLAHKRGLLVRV
# Method: Method to Determine the Ability of Compounds of Formula I to Inhibit Human Recombinant MAO-B
# The ability of the compounds of this invention to inhibit MAO-B activities in vitro was tested. Recombinant human MAO-B (0.06 mg/mL; Sigma Aldrich) was used as source of MAO-B enzyme activities.
# [1] = system: mdx mice (C57BL/10ScSn-Dmdmdx/J); test: Mouse model of Duchenne muscular dystrophy, PXS-5131; assay type: in vivo; conditions: 6 mg/kg/day oral, 4 weeks, 3 months old mdx mice
# Method: mdx mice (C57BL/10ScSn-Dmdmdx/J) were obtained from Jackson Laboratories, Maine, US. […] Untreated, age-matched animals were used as controls. The drug was administered using small palatable gelatin pellets prepared with 10% gelatin in 20% sucralose plus food flavoring (Zhang L. Protoc. Exch. 2011, 236) Animals were pre-conditioned to recognize and eat the gelatins with a three-day routine involving overnight fasting followed by exposure of each single animal to the gelatin without the active principle, in the absence of other food. Palatability was further improved by dipping the pellets in corn oil containing trace amounts of almond oil and then breading them with pulverized food pellet.
# Muscle function in vivo was assessed for the gastrocnemius muscle, as described by Blaauw B. et al., Hum. Mol. Genet. 2008, 17, 3686-3696. Mice were anesthetized, and electrodes were placed on either side of the sciatic nerve, while the common peroneal nerve was cut. Muscle torque production was measured using a lever system (Aurora Scientific 305B). A lever arm of 2.1 mm was used for all groups, as no major differences in body weight between various groups was observed. Eccentric contractions were performed by moving the foot backward at a velocity of 40 mm/s while the gastrocnemius was stimulated with a frequency sufficient to induce full tetanic fusion (100 Hz). Contractions were repeated once every 20 s to avoid inducing fatigue (see FIG. 6).
# After the force measurements described above, animals were sacrificed by cervical dislocation and the skeletal muscle and the heart (minus the atria) were collected, flash-frozen in isopentane pre-cooled with liquid nitrogen and stored at −80° C. 12 μm sections from a limb muscle (tibialis anterior) were prepared with a cryotome; multiple serial slides were prepared, containing sections from at least three different levels. The same procedure was used to prepare heart transverse sections.
# The amount of the neutrophil and macrophage infiltration was determined in serial sections of skeletal muscle prepared as described above, which were fixed and then stained via immunofluorescence with an anti Ly6G and an anti F4/80 antibody (AbCam, ab25377 and ab6640, for neutrophils and macrophages, respectively). The amount of infiltrate was assessed as percentage of fluorophore-positive pixel over the total area of the sections, using Image-J software (FIGS. 7A and B).
# The amount of reactive oxygen species (ROS) present in the skeletal muscle tissue sections was assessed using dihydroethidium (DHE, Sigma) as a fluorescent probe in freshly cut tissue sections as described by Menazza et al., et al., Hum. Mol. Genet. 2010, 19, 4207-4215. In the presence of ROS, DHE is oxidized forming ethidium, which then can bind to nuclear DNA and emit red fluorescence. The amount of the red fluorescence was then measured from at least 20 random fields per each section using the Metafluor software (Leica), and data were averaged per field (FIG. 7C).
# The percentage of fibrotic tissue in skeletal muscle was determined by picrosirius red staining. […] Whole images of at least three sections per muscle sample were then acquired with a bright field microscope and then analyzed with Image-J software, in order to measure the percentage of fibrotic (red) areas with respect to the total surface (FIG. 7D).
SMILES,IC50 (Recombinant human MAO-B),"neutrophil influx in the tibialis anterior muscle ([1]; p<0.0001, FIG. 7A)","macrophage influx in the tibialis anterior muscle ([1]; p<0.0001, FIG. 7B)","reactive oxygen species in the tibialis anterior muscle ([1]; p<0.0001, FIG. 7C)","fibrosis (picrosirius red staining) in the tibialis anterior muscle ([1]; p<0.0001, FIG. 7D)","loss of force caused by eccentric contractions in the gastrocnemius muscle ([1]; p<0.05, FIG. 6)"
"N#Cc1ccc(OC/C(=C/F)CN)cc1 [Compound 1, (E)-4-((2-(aminomethyl)-3-fluoroallyl)oxy) benzonitrile]",< 50 nM,,,,,
"NC/C(=C\F)C1Cc2ccccc2O1 (single isomer, unassigned; (-)) [PXS-5131, (−)-(E)-2-(2,3-Dihydrobenzofuran-2-Yl)-3-Fluoroprop-2-En-1-Amine Hydrochloride]",,significantly reduces,significantly reduces,significantly reduces,significantly reduces,helps protect against the loss of force
